Measurements: patent US8471005B2 (Cephalon, Inc., priority 2008, dated 2013)
Where two headings read alike, the source gives them in different places.

What was measured:
ALK = target: T1, ALK (Homo sapiens, UniProt Q9UM73); test: ALK Kinase Assay (ELISA/TRF, PLC-γ substrate); assay type: biochemical; details: read-out: ALK Potency
T1 construct: host or cells: baculovirus expression system
How it was run: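 IC50 values derive from percent inhibition plotted against log10 compound concentration and fitted to a variable-slope sigmoidal equation. The underlying reaction used 30 ng/ml ALK acting on immobilized PLC-γ (10 μg/mL in TBS) at 37° C for 15 minutes, read with Eu-N1 PT66 antibody.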

JAK2 = target: T2, JAK2 (Homo sapiens, UniProt O60674); test: Recombinant Human JAK2 Kinase Assay (TRF); assay type: biochemical; details: read-out: JAK2 Potency
T2 construct: host or cells: baculovirus expression system
T2 sequence (O60674 whole entry): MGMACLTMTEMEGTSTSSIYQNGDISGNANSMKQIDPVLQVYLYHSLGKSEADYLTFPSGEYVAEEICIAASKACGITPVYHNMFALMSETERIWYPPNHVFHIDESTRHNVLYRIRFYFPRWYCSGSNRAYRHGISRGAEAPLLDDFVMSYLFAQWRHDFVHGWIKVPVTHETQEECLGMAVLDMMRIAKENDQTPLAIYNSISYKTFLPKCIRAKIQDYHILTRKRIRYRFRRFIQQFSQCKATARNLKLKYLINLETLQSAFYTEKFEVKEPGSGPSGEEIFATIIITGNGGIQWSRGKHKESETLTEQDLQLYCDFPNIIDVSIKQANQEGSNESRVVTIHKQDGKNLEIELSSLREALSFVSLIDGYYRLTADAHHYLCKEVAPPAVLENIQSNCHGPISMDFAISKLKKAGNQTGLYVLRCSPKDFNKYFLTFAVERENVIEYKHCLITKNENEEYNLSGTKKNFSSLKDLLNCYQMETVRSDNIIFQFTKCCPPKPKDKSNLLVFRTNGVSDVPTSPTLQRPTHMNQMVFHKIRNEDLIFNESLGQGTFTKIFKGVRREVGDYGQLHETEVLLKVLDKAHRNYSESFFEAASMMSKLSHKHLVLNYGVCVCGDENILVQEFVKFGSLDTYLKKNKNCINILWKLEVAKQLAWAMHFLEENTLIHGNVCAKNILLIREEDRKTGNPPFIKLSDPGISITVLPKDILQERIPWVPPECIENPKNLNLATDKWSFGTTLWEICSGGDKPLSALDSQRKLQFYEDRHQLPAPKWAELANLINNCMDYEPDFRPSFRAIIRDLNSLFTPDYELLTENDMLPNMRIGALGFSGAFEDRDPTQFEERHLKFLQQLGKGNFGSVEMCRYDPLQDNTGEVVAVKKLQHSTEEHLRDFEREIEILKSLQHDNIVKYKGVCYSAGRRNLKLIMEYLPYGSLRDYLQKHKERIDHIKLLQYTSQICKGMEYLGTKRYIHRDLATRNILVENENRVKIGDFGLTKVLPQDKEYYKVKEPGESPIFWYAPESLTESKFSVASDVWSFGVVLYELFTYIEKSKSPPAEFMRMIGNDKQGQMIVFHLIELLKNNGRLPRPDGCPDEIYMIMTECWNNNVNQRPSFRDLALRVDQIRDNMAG
How it was run: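 Kinase activity of baculovirus-expressed JAK2 is followed on a surface-immobilised biotinylated peptide, with the reaction run for 20 min at room temperature in buffer containing 0.2 μM ATP and manganese. Phosphorylation is read with Eu-N1 PY100 antibody.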

[1] = ALK kinase inhibition, 1 μM ATP
[2] = JAK2 kinase inhibition, 0.2 μM ATP

T1 sequence (Q9UM73 19-1620): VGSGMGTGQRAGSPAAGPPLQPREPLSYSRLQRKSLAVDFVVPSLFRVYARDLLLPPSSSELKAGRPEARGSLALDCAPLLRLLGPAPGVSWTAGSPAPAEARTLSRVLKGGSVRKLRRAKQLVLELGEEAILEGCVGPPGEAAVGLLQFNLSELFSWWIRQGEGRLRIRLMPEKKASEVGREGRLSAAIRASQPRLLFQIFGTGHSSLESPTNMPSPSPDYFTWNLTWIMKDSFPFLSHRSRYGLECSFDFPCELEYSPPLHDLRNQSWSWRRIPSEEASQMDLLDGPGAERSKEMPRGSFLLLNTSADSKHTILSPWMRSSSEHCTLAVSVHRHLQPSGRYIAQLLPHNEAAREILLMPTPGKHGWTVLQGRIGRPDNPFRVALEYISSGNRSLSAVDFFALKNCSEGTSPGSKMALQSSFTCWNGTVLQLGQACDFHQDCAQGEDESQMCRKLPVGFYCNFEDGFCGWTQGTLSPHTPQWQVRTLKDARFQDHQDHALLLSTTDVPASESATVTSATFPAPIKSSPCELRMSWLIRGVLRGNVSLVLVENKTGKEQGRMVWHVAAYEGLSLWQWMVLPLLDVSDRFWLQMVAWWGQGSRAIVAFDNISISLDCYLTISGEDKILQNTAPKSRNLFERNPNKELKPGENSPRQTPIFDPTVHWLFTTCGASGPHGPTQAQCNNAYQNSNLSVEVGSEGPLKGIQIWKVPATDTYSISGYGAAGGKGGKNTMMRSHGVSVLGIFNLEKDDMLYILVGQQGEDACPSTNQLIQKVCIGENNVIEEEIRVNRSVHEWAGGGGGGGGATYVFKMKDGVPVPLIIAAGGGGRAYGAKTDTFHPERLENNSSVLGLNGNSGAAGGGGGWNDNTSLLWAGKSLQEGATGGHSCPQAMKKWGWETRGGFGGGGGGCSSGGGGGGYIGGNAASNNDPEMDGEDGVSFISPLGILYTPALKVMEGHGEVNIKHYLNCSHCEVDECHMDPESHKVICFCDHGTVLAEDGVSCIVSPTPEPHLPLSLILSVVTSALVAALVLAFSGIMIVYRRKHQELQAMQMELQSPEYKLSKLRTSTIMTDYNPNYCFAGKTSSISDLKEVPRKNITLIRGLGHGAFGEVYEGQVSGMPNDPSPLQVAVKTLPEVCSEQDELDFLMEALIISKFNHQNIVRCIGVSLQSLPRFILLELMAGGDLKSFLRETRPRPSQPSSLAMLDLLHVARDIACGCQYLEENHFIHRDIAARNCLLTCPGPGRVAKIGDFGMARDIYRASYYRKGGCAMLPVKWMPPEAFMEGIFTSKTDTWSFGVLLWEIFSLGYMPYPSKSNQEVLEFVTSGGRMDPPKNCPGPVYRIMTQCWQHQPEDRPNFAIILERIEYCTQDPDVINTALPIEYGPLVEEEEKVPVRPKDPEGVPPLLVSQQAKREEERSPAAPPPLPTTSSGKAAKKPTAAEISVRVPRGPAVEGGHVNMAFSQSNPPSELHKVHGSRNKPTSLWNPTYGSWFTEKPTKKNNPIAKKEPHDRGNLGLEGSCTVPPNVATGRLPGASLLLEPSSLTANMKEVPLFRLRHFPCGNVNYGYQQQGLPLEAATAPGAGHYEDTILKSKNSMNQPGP

IC50 (ALK; ALK Kinase Inhibition) | IC50 (JAK2; JAK2 Kinase Inhibition) | IC50 (ALK; [1]) | IC50 (JAK2; [2]) | Compound
– | – | 1 to 10 µM | < 0.1 µM | CN1CCN(c2ccc(Nc3ncc4ccc(-c5ccccc5OCC(=O)OC(C)(C)C)n4n3)cc2)CC1 [Example 1173, (2-{2-[4-(4-Methyl-piperazin-1-yl)-phenylamino]-pyrrolo[2,1-f][1,2,4]triazin-7-yl}-phenoxy)-acetic acid tert-butyl ester]
– | – | 1 to 10 µM | < 0.1 µM | CC(C)(C)NS(=O)(=O)c1cccc(-c2ccc3cnc(Nc4ccc5[nH]ncc5c4)nn23)c1 [Example 1315, N-tert-Butyl-3-[2-(1H-indazol-5-ylamino)-pyrrolo[2,1-f][1,2,4]triazin-7-yl]-benzenesulfonamide]
1 to 10 µM | < 0.1 µM | – | – | c1cncc(-c2ccc3cnc(Nc4ccc(N5CCOCC5)cc4)nn23)c1 [Example 11, (4-Morpholin-4-yl-phenyl)-(7-pyridin-3-yl-pyrrolo[2,1-f][1,2,4]triazin-2-yl)-amine]
– | – | 0.1 to 1 µM | < 0.1 µM | CN1CCC(c2ccc(Nc3ncc4ccc(-c5cccnc5)n4n3)cc2)CC1 [Example 1179, [4-(1-Methyl-piperidin-4-yl)-phenyl]-(7-pyridin-3-yl-pyrrolo[2,1-f][1,2,4]triazin-2-yl)-amine]
0.1 to 1 µM | < 0.1 µM | – | – | CN1CCC(c2ccc(Nc3ncc4ccc(-c5ccccc5OCC(N)=O)n4n3)cc2)CC1 [Example 1409, 2-(2-{2-[4-(1-Methyl-piperidin-4-yl)-phenylamino]-pyrrolo[2,1-f][1,2,4]triazin-7-yl}-phenoxy)-acetamide]
– | – | 1 to 10 µM | < 0.1 µM | CN1CCN(C)C(c2ccc(Nc3ncc4ccc(-c5cccc(S(=O)(=O)NC(C)(C)C)c5)n4n3)cc2)C1=O (stereo not shown) [Example 1074, N-tert-Butyl-3-{2-[4-(1,4-dimethyl-3-oxo-piperazin-2-yl)-phenylamino]-pyrrolo[2,1-f][1,2,4]triazin-7-yl}-benzene sulfonamide]
0.1 to 1 µM | < 0.1 µM | – | – | O=S(=O)(Nc1cccc(-c2ccc3cnc(Nc4ccc(N5CCOCC5)cc4)nn23)c1)C1CC1 [Example 414, Cyclopropanesulfonic acid {3-[2-(4-morpholin-4-yl-phenylamino)-pyrrolo[2,1-f][1,2,4]triazin-7-yl]-phenyl}-amide]
0.1 to 1 µM | < 0.1 µM | – | – | CCCS(=O)(=O)Nc1cccc(-c2ccc3cnc(Nc4ccc(N5CCOCC5)cc4)nn23)c1 [Example 418, Propane-1-sulfonic acid {3-[2-(4-morpholin-4-yl-phenylamino)-pyrrolo[2,1-f][1,2,4]triazin-7-yl]-phenyl}-amide]
– | – | < 0.1 µM | 1 to 10 µM | COc1cc(CN2CCNCC2)ccc1Nc1ncc2ccc(-c3ccccc3N(C)S(C)(=O)=O)n2n1 [Example 1223, N-{2-[2-(2-Methoxy-4-piperazin-1-ylmethyl-phenylamino)-pyrrolo[2,1-f][1,2,4]triazin-7-yl]-phenyl}-N-methyl-methanesulfonamide]
0.1 to 1 µM | 1 to 10 µM | – | – | COc1cc(N2CCN(C)CC2)ccc1Nc1ncc2ccc(-c3ccccc3S(=O)(=O)N(C)C)n2n1 [Example 35, 2-{2-[2-Methoxy-4-(4-methyl-piperazin-1-yl)-phenylamino]-pyrrolo[2,1-f][1,2,4]triazin-7-yl}-N,N-dimethyl-benzenesulfonamide]

More lines, now with the values behind:

Compound | IC50 (ALK; ALK Kinase Inhibition) | IC50 (JAK2; JAK2 Kinase Inhibition) | IC50 (ALK; [1]) | IC50 (JAK2; [2])
CN1CCN(Cc2nc3ccc(Nc4ncc5ccc(-c6cccc(S(=O)(=O)NC(C)(C)C)c6)n5n4)cc3[nH]2)CC1 [Example 1524, N-tert-Butyl-3-{2-[2-(4-methyl-piperazin-1-ylmethyl)-3H-benzimidazol-5-ylamino]-pyrrolo[2,1-f][1,2,4]triazin-7-yl}-benzenesulfonamide] | 0.1 to 1 µM | < 0.1 µM | – | –
O=S1(=O)CCCN1c1cccc(-c2ccc3cnc(Nc4cccc(-n5cccn5)c4)nn23)c1 [Example 1506, 7-[3-(1,1-Dioxido-1,2-thiazolidin-2-yl)phenyl]-N-[3-(1H-pyrazol-1-yl)phenyl]pyrrolo[2,1-f][1,2,4]triazin-2-amine] | > 10 µM | < 0.1 µM | – | –
COc1cc(C2CCN(CC(N)=O)CC2)ccc1Nc1ncc2ccc(-c3cccnc3N(C)S(C)(=O)=O)n2n1 [Example 1257, 2-[4-(4-{7-[2-(Methanesulfonyl-methyl-amino)-pyridin-3-yl]-pyrrolo[2,1-f][1,2,4]triazin-2-ylamino}-3-methoxy-phenyl)-piperidin-1-yl]-acetamide] | – | – | < 0.1 µM | 1 to 10 µM
CC(C)(C)OC(=O)c1ccc(-c2ccc3cnc(Nc4ccc(N5CCOCC5)cc4)nn23)cc1 [Example 44, 4-[2-(4-Morpholin-4-yl-phenylamino)-pyrrolo[2,1-f][1,2,4]triazin-7-yl]-benzoic acid tert-butyl ester] | > 10 µM | < 0.1 µM | – | –
Fc1cccc(-c2ccc3cnc(Nc4cccc(N5CCOCC5)c4)nn23)c1 [Example 175, [7-(3-Fluoro-phenyl)-pyrrolo[2,1-f][1,2,4]triazin-2-yl]-(3-morpholin-4-yl-phenyl)-amine] | 0.1 to 1 µM | < 0.1 µM | – | –
CC(=O)c1ccccc1-c1ccc2cnc(Nc3ccc(N4CCN(C)CC4)cc3)nn12 [Example 402, 1-(2-{2-[4-(4-Methyl-piperazin-1-yl)-phenylamino]-pyrrolo[2,1-f][1,2,4]triazin-7-yl}-phenyl)-ethanone] | 0.1 to 1 µM | < 0.1 µM | – | –
O=S(=O)(NCCO)c1cccc(-c2ccc3cnc(Nc4ccc(N5CCOCC5)cc4)nn23)c1 [Example 368, N-(2-Hydroxy-ethyl)-3-[2-(4-morpholin-4-yl-phenylamino)-pyrrolo[2,1-f][1,2,4]triazin-7-yl]-benzenesulfonamide] | 0.1 to 1 µM | < 0.1 µM | – | –
COCCN1CCc2ccc(Nc3ncc4ccc(-c5ccccc5S(=O)(=O)N5CCCC5)n4n3)cc2CC1 [Example 32, [3-(2-Methoxy-ethyl)-2,3,4,5-tetrahydro-1H-benzo[d]azepin-7-yl]-{7-[2-(pyrrolidine-1-sulfonyl)-phenyl]-pyrrolo[2,1-f][1,2,4]triazin-2-yl}-amine] | 0.1 to 1 µM | < 0.1 µM | – | –
COc1ccc(Cl)cc1-c1ccc2cnc(Nc3ccc(N4CCC(N5CCOCC5)CC4)cc3)nn12 [Example 335, [7-(5-Chloro-2-methoxy-phenyl)-pyrrolo[2,1-f][1,2,4]triazin-2-yl]-[4-(4-morpholin-4-yl-piperidin-1-yl)-phenyl]-amine] | 0.1 to 1 µM | < 0.1 µM | – | –
COc1cc(CN2CCN(C[C@H](C)O)CC2)ccc1Nc1ncc2ccc(-c3ccccc3N(C)S(C)(=O)=O)n2n1 [Example 1224, N-[2-(2-{4-[4-((S)-2-Hydroxy-propyl)-piperazin-1-ylmethyl]-2-methoxy-phenylamino}-pyrrolo[2,1-f][1,2,4]triazin-7-yl)-phenyl]-N-methyl-methanesulfonamide] | – | – | < 0.1 µM | 1 to 10 µM
OC(c1ccccc1)c1ccc2cnc(Nc3ccc(N4CCOCC4)cc3)nn12 (stereo not shown) [Example 383, [2-(4-Morpholin-4-yl-phenylamino)-pyrrolo[2,1-f][1,2,4]triazin-7-yl]-phenyl-methanol] | 1 to 10 µM | < 0.1 µM | – | –
COc1ccccc1-c1ccc2cnc(Nc3cccc(C4(O)CCNCC4)c3)nn12 [Example 1565, 4-{3-[7-(2-Methoxy-phenyl)-pyrrolo[2,1-f][1,2,4]triazin-2-ylamino]-phenyl}-piperidin-4-ol] | < 0.1 µM | < 0.1 µM | – | –
C[C@@H](O)CN1CCN(c2ccc(Nc3ncc4ccc(-c5cccc(S(=O)(=O)NC(C)(C)C)c5)n4n3)cc2)CC1 [Example 426, N-tert-Butyl-3-(2-{4-[4-((R)-2-hydroxy-propyl)-piperazin-1-yl]-phenylamino}-pyrrolo[2,1-f][1,2,4]triazin-7-yl)-benzenesulfonamide] | 0.1 to 1 µM | < 0.1 µM | – | –
COc1ccc(C2CCN(C)CC2)cc1Nc1ncc2ccc(-c3ccccc3N(C)S(C)(=O)=O)n2n1 [Example 774, N-(2-{2-[2-Methoxy-5-(1-methyl-piperidin-4-yl)-phenylamino]-pyrrolo-[2,1-f][1,2,4]triazin-7-yl}-phenyl)-N-methyl-methanesulfonamide] | – | – | < 0.1 µM | 0.1 to 1 µM
7-(2-Methoxy-phenyl)-2-(2-methoxy-4-piperazin-1-ylmethyl-phenoxy)-pyrrolo[2,1-f][1,2,4]triazine [Example 1238] | – | – | < 0.1 µM | 0.1 to 1 µM
CN1CCN(c2ccc(Nc3ncc4ccc(-c5ccccc5S(C)(=O)=O)n4n3)cc2)CC1 [Example 406, [7-(2-Methanesulfonyl-phenyl)-pyrrolo[2,1-f][1,2,4]triazin-2-yl]-[4-(4-methyl-piperazin-1-yl)-phenyl]-amine] | 1 to 10 µM | < 0.1 µM | – | –
CN1CCN(c2ccc(Nc3ncc4ccc(-c5ccc(CNCCS(C)(=O)=O)cc5)n4n3)cc2)CC1 [Example 1208, (7-{4-[(2-Methanesulfonyl-ethylamino)-methyl]-phenyl}-pyrrolo[2,1-f][1,2,4]triazin-2-yl)-[4-(4-methyl-piperazin-1-yl)-phenyl]-amine] | – | – | 0.1 to 1 µM | < 0.1 µM
(7-Pyridin-3-yl-pyrrolo[2,1-f][1,2,4]triazin-2-yl)-[4-(2-pyrrolidin-1-yl-ethoxy)-phenyl]-amine [Example 126] | 0.1 to 1 µM | < 0.1 µM | – | –
CC(C)(C)NS(=O)(=O)c1cccc(-c2ccc3cnc(Nc4cccc(C(=O)O)c4)nn23)c1 [Example 895, 3-[7-(3-tert-Butylsulfamoyl-phenyl)-pyrrolo[2,1-f][1,2,4]triazin-2-ylamino]-benzoic acid] | – | – | 1 to 10 µM | < 0.1 µM
